Where a SMILES comes first, the peptide text is derived from it. [ ]: non-standard residue; d: D form.
How the values were obtained:
[1] = system: patients; test: Clinical application in patients with severe pain; type: in vivo, humans
Experimental: The use of the peptide compound in patients who have been informed about the drug and who have given their consent
When the morphine drug therapy was once again possible, the use of the experimental prototype of the drug was stopped.
Based on the extrapolation of animal data for dosages for humans, we decided to use 0.7-3 mg of the active tetrapeptide in a single dose, administered by subcutaneous injection, and under the supervision of a specialist. The drug was packaged in lyophilized form of 3 mg per vial before use and dissolved in 1-3 ml of water for injections.
The following parameters were recorded:
1. Time of onset of analgesic effect, duration of effect.
Dynamics of pain on a numerical scale of 0-10: 0—no pain, 10—unbearable pain. The patient makes regular notes on the intensity level of pain during treatment to assess the analgesic effect. Separately, the intensity of pain is noted before receiving the experimental prototype preparation, and during its' administration. 2. The physical activity of the patient. Measured on a scale: 1—normal activity, 2—activity is reduced; the patient is able to go to their own doctor, 3—bed rest at least 50% of the day, 4—bed rest for more than 50% of the day, 5—complete bed rest. 3. Subjective feelings of the patient A change of perception, mood, presence/absence of euphoria or dysphoria, discomfort in the body, feelings in the digestive tract.
Basically, the study was conducted in patients with somatic and internal types of pain, though often it was not possible to accurately classify the type of pain.

[2] = system: rats; test: Hot plate test in rats; type: in vivo; conditions: for HPL, s (Mean ± SEM): hot plate 52° C.
Experimental: The “Hot Plate” test is based on the reflex that rat licking its' feet when the animal comes in contact with a hot surface. The device is a metal surface with a diameter of 30 cm whose temperature is controlled by software. The site is enclosed by a transparent fence with a height of 40 cm. The temperature of the metal pad was set at exactly 52° C. When placing the animal on the surface, you measure the time until the moment when the animal licks its' foot. When analgesics are administered, the time before the rat licks its' feet increases. The licking latency (HPL) of 40 seconds was used as the maximum allowable time of stimulation. The study was conducted on male rats weighing 160-180 g, 6 animals per dose.

[3] = system: mice; test: Open field test and toxicity of high doses in mice; type: in vivo; conditions: intraperitoneally
Experimental: Testing of the influence of the injectable substance based on tetrapeptide (as in example 2) H-Tyr-D-Arg-Phe-Gly-NH2 on the behavior of animals, was provided in the study of the toxicity of high doses of the “open field” test and maintaining balance on a horizontal rod.
The aim of the experiment was to identify an effective dose of the substance that affects the behavior of the animals. It was tested on several animals after administration of different doses of peptide compound.
The experimental and control groups of male mice were taken from the same batch, about the same weight (22-24 g).
The substance was injected intraperitoneally in identical weight amounts to laboratory animals in the experimental and control groups, respectively. […] The measurement was started 15 minutes after injection.
Several groups were organized: without the introduction of the substance, and with the introduction of a solution of morphine or peptide. After 15 from injection we conducted measurement in the following order:
Each animal tested was introduced into a round, not brightly lit arena. The surface is divided into square blocks of 10 cm each. We count locomotor activity of the mouse when it crossed the square. The movement of the mouse in the center of the arena and on the periphery, are recorded separately. We registered the number of times the mouse stands on its hind legs “stand” and the number of times the mouse looks into a “burrow”—ie. holes in the floor. Observations were done visually and were simultaneously entered into a computer using a keyboard (semi-automatic registration).

N=C(N)NCCC[C@@H](NC(=O)[C@@H](N)Cc1ccc(O)cc1)C(=O)N[C@@H](Cc1ccccc1)C(=O)NCC(N)=O [Peptide compound, H-Tyr-D-Arg-Phe-Gly-NH2] (H-Y[dR]FG-NH2)
duration of analgesic effect ([1]; Patient 1, 3 mg 2 times a day): 8 to 12 h | subjective feelings / negative effects ([1]; Patient 1, 3 mg 2 times a day, first injection): very light dysphoric effect for 10-15 minutes | degree of analgesia, pain scale 0-10 ([1]; Patient 1, pain before 6-9, 3 mg 2 times a day): 1-3 | Time of analgesia (onset) ([1]; Patient 1, pancreatic cancer stage IV, pain 6-9, 3 mg 2 times a day subcutaneous, 5 days): 10 to 15 min | duration of analgesic effect ([1]; Patient 2): 6 to 12 h | negative effects ([1]; Patient 2): No negative effects were detected | degree of analgesia, pain scale 0-10 ([1]; Patient 2, 2 mg three times first day, then 1.5 mg 2 times a day): 2-3 | Time of analgesia (onset) ([1]; Patient 2, colon cancer stage IV, 2 mg three times first day, then 1.5 mg 2 times a day, 4 days): 10 to 15 min | duration of analgesic effect ([1]; Patient 3): 8 to 10 h | negative effects ([1]; Patient 3): No negative effects were detected | Time of analgesia (onset) ([1]; Patient 3, colon cancer stage IV, pain 7-10, 1.5 mg 2 times a day, 4 days): 10 to 15 min | degree of analgesia, pain scale 0-10 ([1]; Patient 3, pain before 7-10, 1.5 mg 2 times a day): 1-3 | duration of analgesic effect ([1]; Patient 4): 8 to 10 h | negative effects ([1]; Patient 4): No negative effects were detected | time of analgesic effect (onset) ([1]; Patient 4, breast cancer stage IV, pain 7-10, 1.5 mg 2 times a day, 5 days): 10 to 20 min | degree of analgesia, pain scale 0-10 ([1]; Patient 4, pain before 7-10, 1.5 mg 2 times a day): 1-3 | duration of analgesic effect ([1]; Patient 5): 8 to 10 h | negative effects ([1]; Patient 5): No negative effects were detected | Time of analgesia (onset) ([1]; Patient 5, breast cancer stage IV, pain 7-8, 0.7 mg two times a day, 6 days): 10 to 15 min | degree of analgesia, pain scale 0-10 ([1]; Patient 5, pain before 7-8): 1-3 | duration of analgesic effect ([1]; Patient 6): 8 to 12 h | negative effects ([1]; Patient 6): No negative effects were detected | Time of analgesia (onset) ([1]; Patient 6, compression fracture of a vertebra, pain 7-8, 1.5 mg 2 times a day, 2 days): 10 to 15 min | degree of analgesia, pain scale 0-10 ([1]; Patient 6, pain before 7-8): 1-3 | adverse reactions (impaired consciousness, euphoria or dysphoria, digestive tract, respiratory depression, heart disorders) ([1]; all of the cases (Patients 1-6)): no adverse reactions | Proportion of the maximum possible effect (MPE), % ([2]; 0.1 mg/kg subcutaneous): 38.2% | HPL, s (Mean ± SEM) ([2]; 0.1 mg/kg subcutaneous): 26.01 ± 8.8 s | Proportion of the maximum possible effect (MPE), % ([2]; 5 mg/kg subcutaneous): 98.3% | HPL, s (Mean ± SEM) ([2]; 5 mg/kg subcutaneous): 39.33 ± 1.63 s | dose at which the effect of full analgesia was observed ([2]; hot plate): 5 mg/kg | higher level of activity in comparison with morphine ([2]; hot plate): ~10 times | dose of morphine with corresponding analgesic efficacy ([2]; hot plate, proposed drug 0.1 mg/kg): 5 mg/kg | doses that do not result in toxic effects [3]: up to 200 EC50 | toxic effects ([3]; dose of 100 mg/kg): the animals continued to move actively, breathing was not inhibited, and heart beats were stable | reduced activity moving around the field ([3]; open field, dose of 20-100 mg/kg, 15 minutes after injection): 20-25% | reduction in exploratory activity ("stand-burrow") ([3]; open field, large doses): 20-30%
